Assay: Wide-angle X-ray scattering
Assay type: physicochemical
Details: FIG. 1
From the text: The scattering plots for active ingredient (top) and dry powder from 1b) (bottom) are depicted in FIG. 1. The ritonavir starting material is crystalline, as proven by the X-ray diagram which is characterized by a number of sharp interferences. […] This also applies to the ancillary substances lactose and ascorbyl palmitate which are otherwise crystalline.

solid state by X-ray scattering plot: crystalline
SMILES: CC(C)c1nc(CN(C)C(=O)N[C@H](C(=O)N[C@@H](Cc2ccccc2)C[C@H](O)[C@H](Cc2ccccc2)NC(=O)OCc2cncs2)C(C)C)cs1 [ritonavir]

Source: US7687071B1, “Nanoparticulate core shell systems and the use thereof in pharmaceutical and cosmetic preparation” (BASF Aktiengesellschaft, priority 1998, dated 2010)
